Source: patent US20230293698A1, “METAL-ORGANIC FRAMEWORKS DELIVER SMALL MOLECULES AND BIOMACROMOLECULES FOR CANCER IMMUNOTHERAPY” (The University of Chicago, priority 2020, published 2023)

Columns and labels:
[1] = test system: MC38 tumor; conditions: intratumoral injection, Cy5 label
Excerpt: The images were processed and analyzed by software sold under the tradename LIVING IMAGE® 4.7.2 (PerkinElmer, Waltham, Massachusetts, United States of America).

[2] = Toxicity after intravenous injection; assay type: in vivo; conditions: C57BL/6 mice, biweekly, total of 4 doses

| Compound | fluorescence signal retention in tumor [1] | toxicity (bodyweight gains) [2] |
| --- | --- | --- |
| Nc1nc2c(ncn2[C@@H]2O[C@@H]3COP(=O)(O)O[C@H]4[C@@H](O)[C@H](n5cnc6c(N)ncnc65)O[C@@H]4COP(=O)(O)O[C@@H]2[C@@H]3O)c(=O)[nH]1 [cGAMP, cyclic guanosine monophosphate-adenosine monophosphate] | diffused and disappeared quickly | – |
| Ir(DBB)[dF(CF3)ppy]2^+ [DBB^F-Ir] | – | did not cause toxicity |
